Laboratory results published in paper PMC8571951, “An activity‐based bioprobe differentiates a novel small molecule inhibitor from a LOXL2 antibody and provides renewed promise for anti‐fibrotic therapeutic strategies” (Clinical and Translational Medicine, 2021).

Biological target: T1, LOXL2 (Homo sapiens, UniProt Q9Y4K0)
T1 sequence (Q9Y4K0 26-774): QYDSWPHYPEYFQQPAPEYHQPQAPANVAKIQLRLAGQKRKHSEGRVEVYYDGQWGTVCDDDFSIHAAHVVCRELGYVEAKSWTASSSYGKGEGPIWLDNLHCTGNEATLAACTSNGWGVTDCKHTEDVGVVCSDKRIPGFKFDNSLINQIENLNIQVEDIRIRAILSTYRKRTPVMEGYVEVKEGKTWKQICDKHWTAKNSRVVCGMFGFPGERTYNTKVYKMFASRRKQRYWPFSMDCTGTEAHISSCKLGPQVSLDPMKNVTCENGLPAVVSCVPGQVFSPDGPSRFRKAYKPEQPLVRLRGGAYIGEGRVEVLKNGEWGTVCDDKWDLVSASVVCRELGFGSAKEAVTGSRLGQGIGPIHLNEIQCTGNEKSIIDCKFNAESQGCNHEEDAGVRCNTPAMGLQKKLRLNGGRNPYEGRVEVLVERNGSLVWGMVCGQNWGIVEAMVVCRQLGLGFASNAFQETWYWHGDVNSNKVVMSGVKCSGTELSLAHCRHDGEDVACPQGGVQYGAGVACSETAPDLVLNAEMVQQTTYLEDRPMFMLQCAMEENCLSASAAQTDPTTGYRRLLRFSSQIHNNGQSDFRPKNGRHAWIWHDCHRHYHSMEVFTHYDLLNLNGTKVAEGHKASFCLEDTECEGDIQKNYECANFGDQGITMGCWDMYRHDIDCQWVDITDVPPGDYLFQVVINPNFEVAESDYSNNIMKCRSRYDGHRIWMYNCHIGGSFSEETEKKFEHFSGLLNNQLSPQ
Experiment: Standard Amplex Red assay, rh LOXL2 (putrescine substrate)
Type: biochemical
Settings: for IC50: Amplex Red assay, 30 min pre-incubation
Text: FIGURE 1 Characteristics of the activity‐based probe (ABP) PXS‐5878. (A) Chemical structure of PXS‐5878, with functional subunits denoted with different colours. The fluoroallylamine moiety (blue) was designed to interact with the lysine tyrosylquinone (LTQ) co‐factor within the lysyl oxidase active sites. An extended linker (green) was incorporated to provide optimal separation between the reactive functional group and the tag, avoiding unfavourable steric hindrance. Biotin was selected as a tag, with higher sensitivity found to be achieved using a double tag (red), resulting in PXS‐5878 as the preferred ABP. (B) Concentration‐dependent inhibition of recombinant human (rh) lysyl oxidase‐like 1‐4 (LOXL1‐4) and native bovine LOX in a standard Amplex Red assay with 30 min pre‐incubation; n = 3–4 independent experiments, standard error of mean (SEM). Native bovine LOX was used as a surrogate for human LOX as both enzymes have similar pharmacology for fluoroallylamines.[2], [9] (C) Irreversible nature of PXS‐5878 enzyme inhibition confirmed using a jump dilution assay. Enzyme (rh LOXL1, rh LOXL2 or LOXL3) was pre‐incubated with 10 × IC50 of PXS‐5878 for 30 min, then diluted 100x and remaining activity assessed by Amplex Red assay. […] Each value is an average of three experiments. (D) Schematic representation of the assay development to detect lysyl oxidase activity by PXS‐5878 using a direct enzyme‐linked assay with lysyl oxidases as the target analyte. HRP: horseradish peroxidase; TMB: 3,3′,5,5′‐tetramethylbenzidine, a chromogenic substrate. After target analyte is bound to the plate, PXS‐5878 was incubated for 60 min in the presence or absence of a pan‐LOX inhibitor (β‐aminopropionitrile, [BAPN]) and streptavidin‐HRP is then added. After incubation the plate is washed and TMB added to measure the amount of bound ABP/streptavidin/HRP. This leads to a high signal. Application of BAPN to block the enzymatic site prevents PXS‐5878 from binding, and it is consequently washed off the plate, resulting in a low signal. In the final Simoa® assay, the enzyme is bound by the antibody to the bead. (E) Detection of enzymatically active lysyl oxidases by PXS‐5878. rh LOXL1, LOXL2 or LOXL3 were immobilised on the surface of a microtiter plate and processed as described in (D). Optical density in the absence of the pan‐LOX inhibitor BAPN (high signal) was divided by the value in the presence of BAPN (low signal). Low signal was 1.81 ± 0.77 (n = 8) times larger than blank controls. Two independent replicates were performed (total n = 4–5 for each enzyme).
Small molecule, selective LOXL2 (PXS‐5338, Figure S3) or pan‐LOX inhibitors compete with substrate but ultimately occupy the enzymatic pocket, irrespective of whether the substrate is small (e.g., putrescine) or large (e.g., collagen). […] Further studies with AB0023 were therefore limited to 300 nM.
FIGURE 2 Characteristics of PXS‐5338 and inhibition of lysyl oxidase‐like 2 (LOXL2) enzymatic activity in vitro and in vivo. (A) Chemical structure of PXS‐5338. […] (B) Tissue levels of PXS‐5338 measured 1 and 4 h after a single oral dose of 30 mg/kg in the rat. […] Average data from three different animals. (C) Concentration‐dependent inhibition of native human LOX and rh LOXL1‐4 in a standard Amplex Red assay with 30 min pre‐incubation; n ≥3 independent experiments, standard error of mean (SEM). (D) PXS‐5338 inhibits rh LOXL2 in a time‐dependent manner, with increasing potency observed upon longer incubation with the enzyme. […]

Compound | Change of potency with increasing substrate (putrescine) concentration (substrate added simultaneously with inhibitor) | IC50 [nM] | Concentration at which full inhibition of rh LOXL2 is achieved (standard assay using putrescine or collagen as substrate) | Pre-incubation time after which inhibition of rh LOXL2 is complete (varying pre-incubation times, putrescine as substrate) [h]
CC(C)c1c(Cc2ccc(S(C)(=O)=O)nc2)c2ncccc2n1C/C(F)=C/CN [PXS-5338] | potency of PXS-5338 decreases | – | – | –
CC(C)c1c(Cc2ccc(S(C)(=O)=O)nc2)c2ncccc2n1C/C(F)=C/CN [PXS‐5338] | – | 35 | above 300 nM | 2
NC/C=C(\F)CS(=O)(=O)c1cccc(Cn2cc(-c3cc(OCCCc4cn(CCCCC[C@@H]5SC[C@@H]6NC(=O)N[C@@H]65)nn4)cc(OCCCc4cn(CCCCC[C@@H]5SC[C@@H]6NC(=O)N[C@@H]65)nn4)c3)nn2)c1 [PXS-5878] | – | 203 | – | –
